# Data from patent US11378572B2, “Therapeutic agent for immune cell migration-caused disease and method for screening same” (ZYMEDI CO., LTD., priority 2017, dated 2022).
# Key:
# [1] = test system: pulmonary arterial hypertension (PAH) model; assay: Monocrotaline pulmonary arterial hypertension (PAH) model, BC-KI-00053; format: in vivo, SD rats
# Experimental: In order to induce PAH in 6-week-old female SD rats (Oriental Bio), 60 mg/kg of MCT (monocrotaline), a substance that causes pulmonary hypertension through pulmonary arterial injury, was injected subcutaneously. Then animals were divided into four groups (5 animals per group), and orally administered with vehicle, sildenafil (25 mg/kg, once daily) or BC-KI-00053 (25 or 50 mg/kg, dissolved in vehicle, once daily) for 3 weeks. Vehicle was corn oil:polyethylene glycol 400:Tween 80:methyl cellulose (1%)=20:30:1:49.
# Three weeks later, rats were anesthetized with isoflurane, and blood flow and pressure were measured using an MPVS cardiovascular pressure and volume system (model name: MPVS Ultra, manufactured by Millar Instruments). Right ventricular systolic pressure (RVESP) and diastolic pressure, left ventricular systolic pressure and diastolic pressure were measured using a dedicated catheter (Mikro-Tip rat pressure catheter, manufactured by Millar Instruments). Cardiac output was measured using a perivascular blood flow probe (Transonic® Flowprobes, manufactured by […]), and experimental techniques were performed in the same manner as described in the literature: Pacher P, Nagayama T, Mukhopadhyay P, Batkai S, Kass D A. Measurement of cardiac function using pressure-volume conductance catheter technique in mice and rats. Nat Protoc 2008, 3(9):1422-34.
# IHC staining for CD68, a monocyte/macrophage marker, was performed using lung tissues from each experimental group. Collected lungs were fixed in PFA (paraformaldehyde) according to the conventional procedure, and then embedded in paraffin through water washing, dehydration, and tissue clearing processes. Lung tissue paraffin blocks of rats were cut to a thickness of […] and slides were prepared. Thereafter, staining was performed as follows. First, three times for 5 minutes xylene treatment, 2 minutes in 100% ethanol twice, 95% ethanol, 90% ethanol, 70% ethanol, DW treatment for 2 minutes in this order and washed with PBS for 5 minutes (2 times). After treatment with 0.3% H2O2 (10 minutes), slides were washed twice with PBS for 5 minutes. Then slides were soaked in 0.01M citrate buffer of pH 6.0 and microwaved for 3 minutes and 30 seconds, then antigen retrieval of cooling for 10 seconds and reheating for 10 seconds was repeated for 10 minutes followed by 20 minutes of cooling at room temperature. Afterwards, slides were washed three times for 5 minutes with PBS-T (0.03% Triton-X). After 30 minutes blocking (2% BSA & 2% goat serum in PBS) at 4° C. anti-CD68 antibody (1:200, Abcam, ab31630) was treated overnight at 4° C. After washing three times with PBS-T for 5 minutes, slides were treated with polymer-HRP anti-mouse envision kit (DAKO) for 1 hour at 4° C. After washing 3 times with PBS-T for 5 minutes, 1 ml of DAB substrate buffer and 20 ul of DAB chromogen were mixed and treated with tissue. After 10 minutes when colors developed, slides were washed twice with tertiary distilled water. Stained tissues were treated with Mayer's hematoxylin (Sigma) for 1 minute, and then treated in the order of 70% ethanol, 90% ethanol, 95% ethanol, and 100% ethanol, twice for 2 minutes for each solution. Finally, after three times of xylene treatment for 5 minutes, cover slides were mounted using a mounting solution, and observed with an optical microscope.
# [2] = test system: liver ischemia-reperfusion injury model; assay: Liver ischemia-reperfusion injury model; format: in vivo, CX3CR1-GFP mice; settings: 100 mg/kg oral once daily, 3 days; 24 hours of reperfusion
# Experimental: A liver ischemia-reperfusion injury model was prepared using CX3CR1-GFP mice to investigate the effect of inhibitors of KRS translocation to the plasma membrane on the monocyte infiltration during ischemic immune responses. Monocytes, macrophages and Kupffer's cells appear green in CX3CR1-GFP mice. Mice were orally administered with vehicle or BC-KI-00053 (100 mg/kg, dissolved in vehicle, once daily) for a total of three days beginning two days before imaging (D-2, D-1, D-0). For vehicle, corn oil:polyethylene glycol 400: Tween 80: methyl cellulose (1%)=20:30:1:49 was used. On day 3 of oral administration (D-0), triad (bile duct, hepatic artery, […]) occlusion was performed using a 6-0 suture as shown in FIG. 8a. Triad occlusion was performed for 30 minutes to induce acute inflammation, and 3 g of Eppendorf tubes were suspended from both ends of the suture. Suture was removed and the ischemic inflammation site was observed immediately after reperfusion (0 hour) and 24 hours later. At this time, blood vessels were labeled with Alexa Flour 555-bound anti-CD31 antibody for repeated imaging (identifiable as red). Two-photon microscope was used as an imaging equipment.
# [3] = 25 or 50 mg/kg oral once daily 3 weeks
compound,measurement,setting,value
"COc1ccc(CCN(Cc2ccc(C(=O)O)cc2)c2nc3cccc(F)c3s2)cc1 [BC-KI-00053, 4-({(7-fluorobenzo[d]thiazol-2-yl)[2-(4-methoxyphenyl)ethyl]amino}methyl)benzoic acid]",left ventricular end systolic pressure (LVESP),"[1]; 50 mg/kg, not statistically significant",increased
same,left ventricular end systolic pressure (LVESP),[1]; [3],no decrease
same,lung tissue infiltration of monocytes/macrophages (CD68 IHC),[1]; [3],clearly reduced
same,RVESP (right ventricular systolic pressure),"[1]; 25 or 50 mg/kg oral once daily 3 weeks, concentration dependent",significantly reduced
same,reduction of lung monocyte/macrophage infiltration compared with sildenafil,[1]; CD68 IHC,noticeably superior to sildenafil
same,tendency to affect systemic artery pressure compared with sildenafil,"[1]; rat, in vivo",lower tendency
same,monocyte/macrophage infiltration into occluded liver area,[2],significantly reduced
